Patent US20220235043A1, “SUBSTITUTED SULFONAMIDE PYRROLOPYRIDINES AS JAK INHIBITORS” (ACLARIS THERAPEUTICS, INC., priority 2019, published 2022)

Experiments:
Format in all cases: biochemical
JAK1 = target: T1, JAK1 (Homo sapiens, UniProt P23458); experiment: JAK1 enzyme activity assay (Thermo Fisher Selectscreen, Z-lyte); settings: read-out: JAK1 Inhibition IC50
T1 construct: purchased Thermo Fisher Scientific (SelectScreen service)
Method in brief: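 Z-lyte FRET kinase assay with 21.2-91.5 ng JAK1 and 2 μM Tyr 06 peptide in 50 mM HEPES pH 7.0, 10 mM MgCl2, 1 h reaction before development reagent. Background without enzyme, uninhibited signal with 2% DMSO vehicle; 11-point dose-response, IC50 from 4-parameter logistic fit of emission ratio.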

JAK2 = target: T2, JAK2 (Homo sapiens, UniProt O60674); experiment: JAK2 enzyme activity assay (Thermo Fisher Selectscreen, Z-lyte); settings: read-out: JAK2 Inhibition IC50
T2 construct: purchased Thermo Fisher Scientific (SelectScreen service)
T2 sequence (O60674 whole entry): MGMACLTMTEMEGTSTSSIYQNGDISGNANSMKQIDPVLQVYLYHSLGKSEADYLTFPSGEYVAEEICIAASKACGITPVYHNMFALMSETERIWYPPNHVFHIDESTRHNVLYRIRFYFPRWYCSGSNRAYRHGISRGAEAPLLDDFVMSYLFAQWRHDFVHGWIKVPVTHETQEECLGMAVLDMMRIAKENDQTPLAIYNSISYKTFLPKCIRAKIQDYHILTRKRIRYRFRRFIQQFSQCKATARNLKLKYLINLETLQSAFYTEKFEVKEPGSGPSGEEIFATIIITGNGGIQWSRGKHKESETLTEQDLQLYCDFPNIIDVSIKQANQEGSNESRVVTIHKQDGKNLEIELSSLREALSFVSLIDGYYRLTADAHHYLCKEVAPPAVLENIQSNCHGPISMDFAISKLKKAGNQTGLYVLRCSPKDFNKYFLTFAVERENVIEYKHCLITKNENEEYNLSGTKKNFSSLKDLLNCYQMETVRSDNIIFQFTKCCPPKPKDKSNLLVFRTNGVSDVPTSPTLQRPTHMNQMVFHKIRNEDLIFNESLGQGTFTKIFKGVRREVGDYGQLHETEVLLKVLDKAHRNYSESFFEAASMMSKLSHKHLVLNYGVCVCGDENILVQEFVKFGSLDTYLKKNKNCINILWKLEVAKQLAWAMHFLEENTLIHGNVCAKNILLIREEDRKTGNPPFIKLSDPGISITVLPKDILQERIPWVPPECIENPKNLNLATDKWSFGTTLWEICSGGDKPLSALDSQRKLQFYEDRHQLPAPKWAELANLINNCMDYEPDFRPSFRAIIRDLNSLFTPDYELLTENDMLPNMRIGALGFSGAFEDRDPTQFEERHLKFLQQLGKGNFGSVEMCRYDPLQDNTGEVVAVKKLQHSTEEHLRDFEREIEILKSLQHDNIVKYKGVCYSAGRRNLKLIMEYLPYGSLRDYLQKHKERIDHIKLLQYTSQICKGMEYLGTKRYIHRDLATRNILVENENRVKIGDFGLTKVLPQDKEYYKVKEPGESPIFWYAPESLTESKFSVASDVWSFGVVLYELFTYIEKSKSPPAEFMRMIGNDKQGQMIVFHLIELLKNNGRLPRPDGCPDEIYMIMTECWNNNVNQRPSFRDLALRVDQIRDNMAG
Method in brief: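 Z-lyte FRET kinase format: 0.12-0.5 ng JAK2 with 2 μM Tyr 06 peptide in HEPES pH 7.5, 10 mM MgCl2, 1 h reaction, then development reagent. Compounds were run as 11-point dose-response, 2% DMSO vehicle. IC50 came from 4-parameter logistic fit of emission ratio.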

Tyk-2 = target: T3, Tyk-2 (Homo sapiens, UniProt P29597); experiment: Tyk-2 enzyme activity assay (Thermo Fisher Selectscreen, Z-lyte); settings: read-out: Tyk-2 Inhibition IC50
T3 construct: purchased Thermo Fisher Scientific (SelectScreen service)
T3 sequence (P29597 whole entry): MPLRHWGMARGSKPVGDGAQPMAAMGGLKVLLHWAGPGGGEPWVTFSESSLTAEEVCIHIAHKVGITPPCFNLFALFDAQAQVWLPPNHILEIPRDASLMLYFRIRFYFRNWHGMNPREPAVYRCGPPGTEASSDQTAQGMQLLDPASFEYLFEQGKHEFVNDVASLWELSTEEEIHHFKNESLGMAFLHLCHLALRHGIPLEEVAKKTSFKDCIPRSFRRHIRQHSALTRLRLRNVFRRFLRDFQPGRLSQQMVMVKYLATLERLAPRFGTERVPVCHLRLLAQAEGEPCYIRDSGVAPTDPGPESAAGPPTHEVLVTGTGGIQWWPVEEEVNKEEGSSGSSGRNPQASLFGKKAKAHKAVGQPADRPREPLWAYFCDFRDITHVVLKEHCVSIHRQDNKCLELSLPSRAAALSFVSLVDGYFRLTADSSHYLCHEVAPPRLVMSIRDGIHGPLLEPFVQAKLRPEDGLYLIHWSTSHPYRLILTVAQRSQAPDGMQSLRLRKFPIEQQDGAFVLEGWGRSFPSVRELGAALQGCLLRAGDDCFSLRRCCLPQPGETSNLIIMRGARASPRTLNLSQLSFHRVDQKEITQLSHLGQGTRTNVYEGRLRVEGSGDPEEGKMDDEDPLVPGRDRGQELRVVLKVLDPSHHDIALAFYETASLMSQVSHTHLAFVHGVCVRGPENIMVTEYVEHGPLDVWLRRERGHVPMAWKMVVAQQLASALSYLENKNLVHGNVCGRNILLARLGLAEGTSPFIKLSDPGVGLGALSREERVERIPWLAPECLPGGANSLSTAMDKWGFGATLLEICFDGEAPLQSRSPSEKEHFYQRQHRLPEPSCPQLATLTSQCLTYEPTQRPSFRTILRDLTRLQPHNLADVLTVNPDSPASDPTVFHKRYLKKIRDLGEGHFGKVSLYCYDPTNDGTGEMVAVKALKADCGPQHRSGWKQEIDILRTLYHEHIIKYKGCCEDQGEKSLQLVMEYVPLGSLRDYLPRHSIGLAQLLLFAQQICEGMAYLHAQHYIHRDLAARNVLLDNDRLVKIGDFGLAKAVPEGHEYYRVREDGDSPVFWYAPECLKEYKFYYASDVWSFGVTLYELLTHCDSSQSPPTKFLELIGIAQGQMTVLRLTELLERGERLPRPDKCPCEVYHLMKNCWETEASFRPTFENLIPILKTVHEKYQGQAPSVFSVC
Method in brief: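 Z-lyte FRET assay with 3.75-15 ng TYK2 and 2 μM Tyr 03 peptide in 50 mM HEPES pH 7.0, 10 mM MgCl2, 1 mM EGTA, 0.01% BRIJ-35. Reaction ran one hour before development reagent was added. Compounds were tested in an 11-point dose-response; IC50 came from a 4-parameter logistic fit of emission ratio, normalised to no-enzyme and 2% DMSO vehicle controls.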

T1 sequence (P23458 whole entry): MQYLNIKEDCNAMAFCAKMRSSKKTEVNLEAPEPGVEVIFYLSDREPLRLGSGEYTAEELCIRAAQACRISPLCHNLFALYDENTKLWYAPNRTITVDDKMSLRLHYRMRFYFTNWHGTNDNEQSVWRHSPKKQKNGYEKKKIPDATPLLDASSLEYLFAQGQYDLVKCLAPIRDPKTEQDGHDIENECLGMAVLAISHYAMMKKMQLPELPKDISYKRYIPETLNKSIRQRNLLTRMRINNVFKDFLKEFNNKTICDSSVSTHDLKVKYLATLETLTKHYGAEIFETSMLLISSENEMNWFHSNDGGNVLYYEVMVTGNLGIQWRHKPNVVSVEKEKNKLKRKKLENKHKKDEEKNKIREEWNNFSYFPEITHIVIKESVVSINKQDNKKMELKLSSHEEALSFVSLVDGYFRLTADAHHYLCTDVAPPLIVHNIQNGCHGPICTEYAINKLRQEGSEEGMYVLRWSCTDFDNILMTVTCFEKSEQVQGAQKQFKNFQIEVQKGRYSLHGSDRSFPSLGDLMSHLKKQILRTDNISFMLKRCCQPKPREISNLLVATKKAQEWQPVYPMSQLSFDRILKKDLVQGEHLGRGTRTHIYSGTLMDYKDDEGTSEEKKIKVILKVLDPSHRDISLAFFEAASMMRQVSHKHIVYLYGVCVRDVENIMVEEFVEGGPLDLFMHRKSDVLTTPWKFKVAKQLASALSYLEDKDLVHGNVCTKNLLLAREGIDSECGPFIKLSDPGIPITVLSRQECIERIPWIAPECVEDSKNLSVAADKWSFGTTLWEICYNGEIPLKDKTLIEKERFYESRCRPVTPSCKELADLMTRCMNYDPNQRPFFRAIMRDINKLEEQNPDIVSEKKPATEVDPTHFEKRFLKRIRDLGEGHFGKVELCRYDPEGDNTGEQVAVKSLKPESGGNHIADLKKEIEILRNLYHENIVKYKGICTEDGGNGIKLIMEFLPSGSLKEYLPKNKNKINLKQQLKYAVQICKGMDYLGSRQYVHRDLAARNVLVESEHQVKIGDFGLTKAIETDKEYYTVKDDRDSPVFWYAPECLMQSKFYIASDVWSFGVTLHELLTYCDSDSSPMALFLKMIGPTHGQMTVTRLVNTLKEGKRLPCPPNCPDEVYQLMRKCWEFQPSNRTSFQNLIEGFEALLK

IC50 (JAK1): ≤ 10 nM
IC50 (JAK2): ≤ 10 nM
IC50 (Tyk-2): ≤ 10 nM
Compound: Cc1nnc(-c2cnc3[nH]ccc3c2N[C@H]2C[C@@H](NS(=O)(=O)c3cccc(C#N)c3)C2)s1 [Example 75, 3-cyano-N-((1s,3s)-3-((5-(5-methyl-1,3,4-thiadiazol-2-yl)-1H-pyrrolo[2,3-b]pyridin-4-yl)amino)cyclobutyl)benzenesulfonamide]
